Experimental data from patent US12364429B2, “Compositions and methods for a universal clinical test for olfactory dysfunction” (The Rockefeller University, priority 2017, dated 2025).

System: trigeminal system
Experiment: Lateralization task (odorant applied into only one nostril)
Assay type: in vivo, human
Details: pure concentration; number of correct tasks out of 20; eucalyptol 4 trials, vanillin 6 trials
Text: SMELL-S and SMELL-R were created with four different mixtures of 30 molecules drawn from a panel of 109 monomolecular, intensity-matched chemicals. These odorants were selected from stimuli utilized in previous psychophysical studies (21, 38). We used only molecules that minimally activated the trigeminal system, because such stimuli can be detected by anosmic subjects (39, 40). A characteristic of trigeminal activation by a molecule is a fresh, cold, burning, eucalyptus, pungent, or tickling sensation. We used a lateralization task in which an odorant is applied into only one nostril to assign a lateralization score to each molecule. It is possible to localize the stimulated nostril if it activates the trigeminal system. In contrast, it is much harder to localize an olfactory stimulus (41). Lateralization tasks were self-administered by one investigator. Two disposable squeeze bottles were placed in a device facilitating simultaneous squeezing and stimuli delivery in each nostril. Only one bottle was filled with an odor stimulus. The tip of each bottle was fitted with a foam piece that conformed to the investigator's nostril, and placed at the entrance of each nostril. The investigator squeezed both bottles simultaneously and attempted to localize which nostril had received the stimulus. After each task, the device was spun on a rotating platform to randomize the odor-stimulus side. […]

Row | SMILES | lateralization score (median)
1 | CC12CCC(CC1)C(C)(C)O2 [eucalyptol] | 20
2 | COc1cc(C=O)ccc1O [vanillin] | 6.5
